Data from PMC6987146, “Potent inhibition of HIV replication in primary human cells by novel synthetic polyketides inspired by Aureothin” (Scientific Reports, 2020).

Assays:
[1] = test system: DsRed1 reporter gene activated by early viral gene expression; test: DsRed1 reporter gene expression in HIV-exposed LC5-RIC cultures (first step of two-step assay); assay type: cell-based, HIV-1; design: unit not given here; details: 50 nM, 48 h
Source text: The reporter gene in LC5-RIC cells contains the HIV promoter and other regulatory elements of HIV expression and is activated by early viral gene expression during HIV infection. Use of LC5-RIC cells in a previously described two-step assay format allows comparison of the effect of compound treatment on expression of the DsRed1 reporter gene and infectious virus production in the same cultures. As reference compound, we used an experimental inhibitor of HIV transcription called Flavopiridol. Flavopiridol blocks pTEFb, an essential co-factor for Tat-dependent activation[18],[19]. […]
Figure 2 Comparison of effects of compound #7 treatment on reporter gene expression and production of infectious virus in LC5-RIC cultures. […] Effects of compound treatment on reporter gene expression and production of infectious virus were determined in LC5-RIC cultures exposed to virus inoculum in the presence or absence of compounds for 48 h. Fluorescent signals of these primary cultures were measured to determine effects on reporter gene expression. Effects on infectious virus production were determined by transferring aliquots of the supernatants of primary cultures to uninfected LC5-RIC cells, and fluorescent signals determined in secondary plates 72 h after transfer. […]

[2] = test system: HIV-2MVP10668-93; test: Inhibition of clinical isolate HIV-2 MVP10668-93 in PBMCs; assay type: cell-based, HIV-type 2; details: Human immunodeficiency virus 2, PBMC
Source text: Clinical isolates represented the following HIV genotypes: HIV-1MMVP899-87: HIV-type 1, Major group; HIV-1OMVP5180-91: HIV-type 1, Outlier group; HIV-2MVP10668-93: HIV-type 2; HIV-1V13-03413B: HIV-type 1, Major group/B-clade, isolate with multiple drug-resistance mutations. Depicted are the means of three independent experiments with biological triplicates (n = 3; m = 3) and standard deviations (SD).
Isolation of primary clinical HIV-isolates HIV-1MMVP899-87, HIV-1OMVP5180-91, HIV-1V13-03413B and HIV-2MVP10668-93 is described in[43]. The HIV-1 M group/B-clade isolate (HIV-1V13-03413B) was isolated from a patient with virological treatment failure. Clinical isolates were produced from HIV infected H9 cells as described.
To evaluate anti-HIV efficacies of test compounds in primary human target cells, stimulated PBMCs were seeded in 96-well plates at a density of 500,000 cells per well, different #7concentrations of the compound (serial dilutions) and virus inoculum (MOI of 0.5) added to the PBMCs and cultures incubated for 48 h. Infectious virus production was quantified by transferring 35 µl of supernatant from the PBMC cultures to LC5-RIC cells, seeded in black 96-well plates one day earlier. LC5-RIC cultures were then incubated for 72 h and analysed for DsRed1 reporter expression and anti-HIV activity calculated as described for the EASY-HIT assay.

[3] = test system: PBMC; test: CellTiter-Glo 2.0 cell viability assay in PBMC; assay type: cell-based, human; details: PBMC
Description: The following assays were used to profile cell safety of compound treatment in HIV-exposed cultures (LC5-RIC or PBMC): (1) CellTox^TM Green Cytotoxicity Assay, Promega, measures binding of a fluorescent dye to DNA of cells with impaired membrane integrity; (2) CellTiter-Glo® 2.0 Assay, Promega, which measures the amount of ATP in viable cells after lysis using an assay with luminescence read-out. Cells were plated into black 96-well plates followed by overnight incubation at 37 °C, 5% CO2. Compounds dissolved in DMSO were screened at multiple concentrations from 0.6 to 10,000 nM at a final DMSO concentration of 0.04% followed by additional 48 h incubation. Both assays were performed according to manufacturer’s recommendations and consecutively in the above mentioned order. Cells were washed once with PBS between the assays.

[4] = target: T1, recombinant HIV-1 reverse transcriptase (Human immunodeficiency virus type 1 group M subtype B, UniProt P04585); test: HIV Reverse Transcriptase Activity Assay (colorimetric kit); assay type: biochemical; details: 10 µM
T1 construct: using 4 ng recombinant HIV-1 reverse transcriptase; purchased Roche
Description: HIV Reverse Transcriptase Activity Assay. To determine the inhibitory effect of test compounds against HIV reverse transcriptase activity, the colorimetric Reverse Transcriptase Assay Kit (Roche) was performed according to manufacturer’s protocol using 4 ng recombinant HIV-1 reverse transcriptase. Efavirenz was used as reference compound.

[5] = target: T2, HIV integrase (Human immunodeficiency virus type 1 group M subtype B, UniProt P04585); test: HIV Integrase Activity Assay (HIV-1 Integrase Assay Kit); assay type: biochemical; details: 10 µM
T2 construct: purchased XpressBio
Description: HIV Integrase Activity Assay. To evaluate the inhibitory effect of test compounds to counteract HIV integrase activity, the HIV-1 Integrase Assay Kit (XpressBio) was conducted according to manufacturer’s recommendations. Dolutegravir was used as reference inhibitor.

| Compound | Reporter gene expression, median (fluorescent signal normalized to untreated virus-exposed cultures) [1] | IC50 ([2]; read-out: IC50 value, HIV-2 MVP10668-93) | IC90 ([2]; read-out: IC90 value, HIV-2 MVP10668-93) | selectivity index (CC50/IC50) [3] | inhibitory effect on Reverse transcriptase activity [4] | inhibitory effect on Integrase activity [5] |
| --- | --- | --- | --- | --- | --- | --- |
| CN1CC[C@H](c2c(O)cc(O)c3c(=O)cc(-c4ccccc4Cl)oc23)[C@H](O)C1 [Flavopiridol] | 9.33 |  |  |  |  |  |
| COc1oc(C2C/C(=C/C(C)=C/c3ccc(C(F)(F)F)cc3)CO2)c(C)c(=O)c1C (stereo not shown) [compound #7] | 55.3 | 3.88 nM | 11.7 nM | > 970 | no inhibitory effects | no inhibitory effects |
